{"source": "paper PMC12715756", "about": "(ACS Chemical Neuroscience, 2025)", "tested_on": "male Swiss CD-1 mice", "experiment": "Open field test (thigmotaxis)", "type": "in vivo", "conditions": "10 mg/kg i.p., vs saline", "protocol": "Male Swiss CD-1 mice (Janvier, Le Genest, France), weighing 30–35 g and aged 6–8 weeks, were used for HLA, thigmotaxis, CPP, and core body temperature experiments. Animals were housed under temperature-controlled conditions (22 ± 1 °C) with a 12 h light/dark cycle and had free access to food and water (standard laboratory diet, Panlab SL, Barcelona, Spain). Doses for HLA, thigmotaxis, CPP, and core body temperature experiments were calculated based on the free base form of each compound. […] Doses for HTR experiments were calculated based on the respective salt forms of the compounds.\nA habituation phase was performed to reduce the stress and novelty associated with handling and injection. […] On the test day, their horizontal locomotor activity (HLA) was measured. […] HLA was video monitored for 2 h, and a specific tracking software (Smart 3.0 Panlab, Barcelona, Spain) was used to measure their total traveled distance (in cm). Center Versus Periphery: The thigmotactic effects of the test compounds, widely considered as anxiety-like effects, were assessed through an OF test. […] The time spent, in seconds, in the center (8 × 8 cm) or the periphery of the arena was monitored for 2 h (Smart 3.0 Panlab, Barcelona, Spain).", "data": [{"smiles": "CC(N)Cc1ccc2c(c1)SCO2", "note": "(stereo not shown) [SDA, 1-(1,3-benzoxathiol-5-yl)propan-2-amine]", "values": [{"measurement": "time spent in the center of the arena (thigmotaxis)", "result": "significantly decreased the time spent in the center of the arena"}]}]}
